Results on 1 compound are retold here after paper PMC10910063, “Helical domain of hGBP3 cannot stimulate the second phosphate cleavage of GTP” (The Journal of Biological Chemistry, 2024).

This assay concerns the target T1, hGBP1^311 (Homo sapiens, UniProt P32455).
T1 construct: gene GBP1; truncated, without the helical domain; purified as previously reported
T1 sequence (P32455 1-311): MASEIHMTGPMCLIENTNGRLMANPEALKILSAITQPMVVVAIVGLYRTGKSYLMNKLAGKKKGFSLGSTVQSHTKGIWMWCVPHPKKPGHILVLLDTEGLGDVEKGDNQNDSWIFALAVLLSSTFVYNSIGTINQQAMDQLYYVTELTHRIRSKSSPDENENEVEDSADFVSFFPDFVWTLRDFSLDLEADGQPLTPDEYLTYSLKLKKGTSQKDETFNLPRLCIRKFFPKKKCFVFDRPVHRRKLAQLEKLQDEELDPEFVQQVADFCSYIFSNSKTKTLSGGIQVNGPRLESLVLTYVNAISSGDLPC
Description: radiolabelled [α-32P]GTP, thin-layer chromatography. It counts as biochemical. As to conditions: Tris pH 7.5, 5 mM MgCl2, 37 °C.

`Nc1nc2c(ncn2[C@@H]2O[C@H](COP(=O)(O)OP(=O)(O)OP(=O)(O)O)[C@@H](O)[C@H]2O)c(=O)[nH]1` [GTP]: the “radiolabelled [α-32P]GTP, thin-layer chromatography” value is “the deletion of the helical domain of hGBP1 significantly reduced GMP production”.
